In the NIST ThermoML archive (doi:10.1016/j.jct.2012.07.009):
± gives the expanded uncertainty stated by the source.

Experiment: an = ratio of the nth substance listed
Details: 298.15 K, 101 kPa, Liquid, Vibrating tube method

With `O=C1CNC(=O)CN1` [2,5-diketopiperazine] + O the mass density (a1 = 0.0025) was 998.08 ± 0.15 kg/m3, the mass density (a1 = 0.0053) was 998.93 ± 0.15 kg/m3 and the mass density (a1 = 0.0101) was 1000.45 ± 0.15 kg/m3. It also gave a mass density (a1 = 0.0134) of 1001.53 ± 0.15 kg/m3 and a mass density (a1 = 0.016) of 1002.32 ± 0.15 kg/m3.

Work on `NCC(=O)O` [2-aminoacetic acid] + O yielded a mass density (a1 = 0.1072) of 1039.03 ± 0.16 kg/m3, a mass density (a1 = 0.1494) of 1051.67 ± 0.16 kg/m3 and a mass density (a1 = 0.1778) of 1060.02 ± 0.17 kg/m3. It also gave a mass density (a1 = 0.2042) of 1068.38 ± 0.17 kg/m3, a mass density (a1 = 0.2232) of 1074.06 ± 0.17 kg/m3 and a mass density (a1 = 0.2433) of 1080.28 ± 0.17 kg/m3.

With `O=C(O)CNCC(=O)O` [N-(carboxymethyl)glycine] + O the mass density (a1 = 0.1079) was 1027.42 ± 0.16 kg/m3, the mass density (a1 = 0.1403) was 1040.98 ± 0.16 kg/m3 and the mass density (a1 = 0.1768) was 1056.44 ± 0.17 kg/m3. It also gave a mass density (a1 = 0.1982) of 1065.68 ± 0.17 kg/m3, a mass density (a1 = 0.2153) of 1072.61 ± 0.17 kg/m3 and a mass density (a1 = 0.2301) of 1077.43 ± 0.17 kg/m3.
